Reference: ChEMBL document CHEMBL3430912, “GSK Tres Cantos Anti-Kinetoplastid Screening (TCAKS) Data”

Assays:
Trypanosoma cruzi [1] = assay: GSK_TCAKS: pIC50 Trypanosoma cruzi viability assay using beta-GAL activity. This assay was run at single shot at 5uM compound concentration per well. The biological reagents consisted of NIH-3T3 host cells and trypomastigotes parasitic cells; both cell types were set to a 3.3 * 10^5 cells/mL dilution in assay DMEM by means of a CASY cell counter device using a 60um capillary. 6 uL of the mixture were dispensed per well (about 1 * 10^3 host-cells and 1 * 10^3 parasites) with a Multidrop Combi dispenser. […] In all wells, the percentage of DMSO never exceeded 0.5%. Plates incubated for four days at 37C, 5% CO2. The substrate used for the assay fluorescence intensity (FLINT) readout was resorufin-beta-D-galactopiranoside (Sigma-Aldrich) at 5uM per well. It was diluted in PBS supplemented with the soft detergent Igepal (Fluka).; type: functional, organism-based, Mus musculus; conditions: Tulahuen, NIH3T3
Trypanosoma cruzi [2] = assay: (§1) GSK_TCAKS: pIC50 Trypanosoma cruzi Imaging: Infected Cells. […] Cells were then washed once with PBS before infection. T. cruzi trypomastigotes, collected at days 5 to 8 after infection from LLC-MK2 parasite infected cultures, were allowed to swim out for 4h at 37C from a centrifuged pellet (2,500 rpm/10 min/room temperature). Trypomastigotes were then collected and counted in a CASY Cell Counter. Trypomastigotes, in supplemented DMEM, were added to H9c2 cultures in a multiplicity of infection of 1 and incubated for 18 h. Cells were washed once with PBS before incubation of the infected H9c2 monolayer with trypsin (Life-Technologies) to detach cells from the flask. Cells were counted in a CASY Cell Counter using a 150 um capillary and their density set at 5 * 10^4 cells per mL in supplemented assay DMEM. Infected H9c2 were dispensed into 384-well poly-lysine coated assay plates at 50uL per well using a Multidrop Combi dispenser. After seeding them, the plates were incubated at 37C, 5% CO2 for 72h. Cultures were then fixed and stained by addition of 50 uL of a solution containing 8% formaldehyde and 4 uM DRAQ5 DNA dye (BioStatus, UK) per well. […] Five images were collected per well for reliable statistical analysis. Automated image analysis was performed with a script developed on Acapella High Content Imaging and Analysis Software (PerkinElmer). Output: percentage of infected cells per well as a second infection marker.; type: functional, organism-based, Rattus norvegicus; conditions: H9c2, 4 h
Trypanosoma cruzi [3] = assay: GSK_TCAKS: pIC50 Trypanosoma cruzi Imaging: Amastigotes/Cell. […] Cells were then washed once with PBS before infection. T. cruzi trypomastigotes, collected at days 5 to 8 after infection from LLC-MK2 parasite infected cultures, were allowed to swim out for 4h at 37C from a centrifuged pellet (2,500 rpm/10 min/room temperature). Trypomastigotes were then collected and counted in a CASY Cell Counter. Trypomastigotes, in supplemented DMEM, were added to H9c2 cultures in a multiplicity of infection of 1 and incubated for 18 h. Cells were washed once with PBS before incubation of the infected H9c2 monolayer with trypsin (Life-Technologies) to detach cells from the flask. Cells were counted in a CASY Cell Counter using a 150 um capillary and their density set at 5 * 10^4 cells per mL in supplemented assay DMEM. Infected H9c2 were dispensed into 384-well poly-lysine coated assay plates at 50uL per well using a Multidrop Combi dispenser. After seeding them, the plates were incubated at 37C, 5% CO2 for 72h. Cultures were then fixed and stained by addition of 50 uL of a solution containing 8% formaldehyde and 4 uM DRAQ5 DNA dye (BioStatus, UK) per well. […] Five images were collected per well for reliable statistical analysis. Automated image analysis was performed with a script developed on Acapella High Content Imaging and Analysis Software (PerkinElmer). Output: number of amastigotes per cell as infection level measurement.; type: functional, organism-based, Rattus norvegicus; conditions: H9c2, 4 h
Trypanosoma cruzi [4] = assay: as §1, with “H2C9” for “Trypanosoma cruzi”, “H9c2 Host Cardiomyocytes.” for “Infected Cells.”, “Number” for “percentage”, “H9c2 Host Cardiomyocytes nuclei to determine drug-related cytotoxicity.” for “infected cells per well as a second infection marker.”; type: functional, organism-based, Rattus norvegicus; conditions: H9c2, 4 h
Leishmania donovani [5] = assay: GSK_TCAKS: pIC50 Leishmania donovani viability assay using fluorescence intensity. Assay plates (1536-well) were prepared by adding 30nL per well of compound. For single shot assay, the final compound concentration was 5uM. […] Briefly, eGFP LdBOB axenic amastigotes were harvested, fixed and counted in a CASY cell counter (Roche-Applied Science). A final concentration of 1.5 * 10^5 cells per well were prepared in amastigote media containing 500 U/mL penicillin/streptomycin (Invitrogen) and 6uL was dispensed to each experimental well using a Multidrop Combi dispenser (Thermo Scientific). 6uL of assay media was dispensed to control columns used as reference for 100% compound response. Following incubation for 72 h at 37C, 5% CO2, 2 uL of resazurin was added to each well at a final concentration of 0.5 mM in phosphate buffered saline (PBS) with IGEPAL (Sigma-Aldrich), 0.05% (v/v).; type: functional, organism-based
Leishmania donovani [6] = assay: (§2) GSK_TCAKS: pIC50 Leishmania donovani Imaging: Infected Macrophages. Assay plates (384-well) were prepared by adding 250nL of compound to each well. For single shot assay, the final compound concentration was 5 uM. […] Automated image analysis was performed with a script developed on Acapella High Content Imaging and Analysis Software (PerkinElmer). Output: Percent of infected macrophage cells were reported for each well.; type: functional, organism-based, Homo sapiens; conditions: THP-1
Leishmania donovani [7] = assay: as §2, with “Amastigotes/Macrophages.” for “Infected Macrophages.”, “Average number” for “Percent”, “amastigotes per” for “infected”, “cell” for “cells”; type: functional, organism-based, Homo sapiens; conditions: THP-1
Leishmania donovani [8] = assay: as §2, with “THP-1 Host” for “Infected”, “THP-1 cell count” for “Percent of infected macrophage cells”; type: functional, organism-based, Homo sapiens
[9] = tested on: Trypanosoma brucei brucei; assay: GSK_TCAKS: pIC50 Trypanosoma brucei viability assay using fluorescence intensity. Assay plates (1536-well) were prepared by dispensing 25nL of compound solution per well using an Echo acoustic dispenser (Labcyte).; type: functional, organism-based; conditions: Lister 427, 2 h
[10] = tested on: Trypanosoma brucei brucei; assay: GSK_TCAKS: pIC50 Trypanosoma brucei viability assay using luminiscence. Assay plates (1536-well) were prepared. T. brucei cultures were harvested and counted in a CASY cell counter. A parasite suspension was prepared at a final concentration of 5 * 10^4 cells/mL in complete HMI9 medium and 6uL was dispensed to all wells containing compounds using a Multidrop Combi dispenser. 6uL of HMI9 media with 0.4% DMSO were dispensed to control columns. Plates were incubated for 24 h at 37C, 5% CO2 then tempered for 10 min at room temperature. ATP content was quantified by adding 4 uL of CellTiter-Glo Reagent (Promega) according to the manufacturer's instructions. Luminescence was measured using a ViewLux.; type: functional, organism-based; conditions: Lister 427, CASY
[11] = GSK_TCAKS: pIC50 HepG2 human cell line viability assay using luminiscence. […] Seeding density was checked to ensure that new mono-layers were not more than 50% confluent at the time of harvesting. Cell suspension was added to 500 mL of the same medium at a final density of 1.2 * 10^5 cells/mL. This cell suspension was dispensed (25 uL, 3000 cells per well) into 384-well clear-bottom plates using a Multidrop Combi dispenser. Prior to addition of the cell suspension, the screening compounds (250 nL) were pre-dispensed into the plates with an Echo liquid handler. Plates were incubated for 48 h at 37C, 5% CO2. After incubation, plates equilibrated at room temperature for 30 min before proceeding to develop the luminescent signal. The signal developer, CellTiter-Glo Reagent, was allowed to equilibrate at room temperature for 30 min and added to the plates (25uL per well) using a Multidrop Combi dispenser. Plates were left for 10 min at room temperature for stabilization and then read using a ViewLux.; type: toxicity, cell-based
NIH3T3 = assay: GSK_TCAKS: pIC50 NIH 3T3 cell line viability assay using luminiscence. Tissue culture surface treated assay plates (1536-well) were used. […] The 100% cells survival control was determined exposing the host-cells to a 0.5% DMSO concentration, whereas the 100% toxicity control was achieved by seeding the cells in presence of Amphotericin B at 50uM. Plates were incubated for four days at 37C, 5% CO2. The assay readout was developed by addition of 5uL of CellTiter-Glo Reagent following the manufacturer's instructions. Luminiscence was measured using a ViewLux.; type: functional, cell-based; conditions: Mus musculus, NIH3T3, 96 h
[12] = biological target: Sterol 14-alpha demethylase (Trypanosoma cruzi (strain CL Brener), UniProt Q7Z1V1); assay: GSK_TCAKS: pIC50 CYP51 from Trypanosoma cruzi.; type: functional
Chain of Sterol 14-alpha demethylase (Q7Z1V1 whole entry): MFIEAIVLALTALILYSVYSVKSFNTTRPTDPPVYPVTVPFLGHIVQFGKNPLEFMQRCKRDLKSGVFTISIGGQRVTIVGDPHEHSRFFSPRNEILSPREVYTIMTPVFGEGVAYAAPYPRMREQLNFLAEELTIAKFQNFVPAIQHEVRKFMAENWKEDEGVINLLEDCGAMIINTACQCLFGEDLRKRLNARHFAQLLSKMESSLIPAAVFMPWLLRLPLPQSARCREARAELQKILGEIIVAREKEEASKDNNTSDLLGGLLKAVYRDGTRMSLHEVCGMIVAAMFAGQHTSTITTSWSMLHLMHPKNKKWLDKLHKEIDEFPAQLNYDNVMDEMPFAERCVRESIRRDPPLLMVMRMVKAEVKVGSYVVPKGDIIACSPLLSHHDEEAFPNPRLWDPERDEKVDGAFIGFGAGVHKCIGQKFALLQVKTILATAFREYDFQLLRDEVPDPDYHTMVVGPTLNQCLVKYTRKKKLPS

Compound | IC50 (Trypanosoma cruzi [1]) | IC50 (Trypanosoma cruzi [2]) | IC50 (Trypanosoma cruzi [3]) | IC50 (Trypanosoma cruzi [4]) | IC50 (Leishmania donovani [5]) | IC50 (Leishmania donovani [6]) | IC50 (Leishmania donovani [7]) | IC50 (Leishmania donovani [8]) | IC50 [9] | IC50 [10] | IC50 at 48 h [11] | IC50 (NIH3T3) | IC50 [12]
N#Cc1nc(C=Cc2ccccc2)oc1NCc1cccnc1 | 0.251 µM | 0.398 µM | 0.398 µM | 15.8 µM | 25.1 µM | 39.8 µM | 31.6 µM | 31.6 µM | 15.8 µM | 31.6 µM | > 100 µM | 12.6 µM | –
CCOc1ccc(NC(=O)C=Cc2ccc(CC)o2)cc1 | 2 µM | 25.1 µM | 15.8 µM | > 50.1 µM | 20 µM | 50.1 µM | 25.1 µM | 20 µM | 15.8 µM | – | 79.4 µM | 31.6 µM | > 100 µM
CCN(C)Cc1ccc(N2CCC(NS(=O)(=O)c3ccc4c(c3)CCO4)CC2)nc1 | 0.631 µM | 1.26 µM | 1 µM | > 50.1 µM | > 50.1 µM | > 50.1 µM | – | > 50.1 µM | > 39.8 µM | 39.8 µM | > 100 µM | 12.6 µM | > 100 µM
Cn1c(CN2CCN(c3ncc(C(F)(F)F)cc3Cl)CC2)nc2ccncc21 | 0.794 µM | 1 µM | 1 µM | > 50.1 µM | 5.01 µM | > 50.1 µM | – | 6.31 µM | 6.31 µM | > 39.8 µM | > 100 µM | 10 µM | 0.0794 µM
FC(F)(F)c1cc(C2CCCN(Cc3c[nH]c4ccccc34)C2)nc2ncnn12 (stereo not drawn) | 1.58 µM | 10 µM | 6.31 µM | > 50.1 µM | > 50.1 µM | > 50.1 µM | > 50.1 µM | 15.8 µM | > 39.8 µM | > 39.8 µM | > 100 µM | 20 µM | –
COc1cc(NC(=O)Nc2cccc(CNC(=O)OC3CCCCC3)c2)ccc1-c1cnco1 | 1 µM | 25.1 µM | 31.6 µM | 15.8 µM | > 50.1 µM | > 50.1 µM | 20 µM | 10 µM | 0.251 µM | – | 39.8 µM | 10 µM | 25.1 µM
CC(C)Nc1nccc(-c2c(-c3ccc(F)cc3)ncn2C2CCOCC2)n1 | 0.282 µM | 0.316 µM | 0.2 µM | > 50.1 µM | 25.1 µM | 25.1 µM | 15.8 µM | > 50.1 µM | 5.01 µM | – | > 100 µM | > 50.1 µM | > 100 µM
CN(C)c1ccc(-c2cc3nccnc3c(OC[C@H]3CCCNC3)n2)cn1 | 1.58 µM | > 50.1 µM | 1.58 µM | 20 µM | > 50.1 µM | 20 µM | 25.1 µM | 20 µM | 2 µM | – | 63.1 µM | 15.8 µM | –
Fc1ccccc1N1C[C@H]2CCN(c3cccnc3)C[C@H]2C1 | 0.2 µM | 0.2 µM | 0.2 µM | > 50.1 µM | 12.6 µM | > 50.1 µM | – | > 50.1 µM | 31.6 µM | > 39.8 µM | > 100 µM | 12.6 µM | 0.0631 µM
CC(Cn1ccnc1)NC(=O)C=Cc1ccc(Cl)cc1 (stereo not drawn) | 0.398 µM | 1 µM | 0.631 µM | > 50.1 µM | > 50.1 µM | > 50.1 µM | > 50.1 µM | > 50.1 µM | > 39.8 µM | – | > 100 µM | > 50.1 µM | 0.158 µM
c1cncc(CN(Cc2ccco2)Cc2c[nH]nc2-c2cccs2)c1 | 0.02 µM | 0.0501 µM | 0.0398 µM | > 50.1 µM | 31.6 µM | > 50.1 µM | 1.26 µM | 20 µM | 25.1 µM | – | > 100 µM | 31.6 µM | 0.0794 µM
CC(C)Oc1ccc(C(=O)Nc2ccc(N3CCOCC3)c(Cl)c2)cc1 | 1.58 µM | 1.26 µM | 1.26 µM | > 50.1 µM | > 50.1 µM | > 50.1 µM | 3.16 µM | > 50.1 µM | 12.6 µM | – | 31.6 µM | 10 µM | > 100 µM
CCCCNc1nccc(-c2c(-c3ccc(F)cc3)nn3c(N4CCOCC4)cccc23)n1 | 0.398 µM | 3.16 µM | 1 µM | > 50.1 µM | > 50.1 µM | 6.31 µM | > 50.1 µM | 12.6 µM | 10 µM | – | > 100 µM | 10 µM | > 100 µM
CN(C)CCOc1ccc(N2CCN(S(=O)(=O)c3ccc(Cl)cc3)CC2)cc1 | 0.631 µM | 0.631 µM | 0.501 µM | > 50.1 µM | 39.8 µM | 31.6 µM | 31.6 µM | > 50.1 µM | 20 µM | 25.1 µM | 50.1 µM | 15.8 µM | –
COc1ccc2nccc(NC(=O)C3(OC)CCN(CC(O)c4ccc5c(c4)OCCO5)CC3)c2n1 (stereo not drawn) | 0.251 µM | 0.316 µM | 0.126 µM | 15.8 µM | 10 µM | 20 µM | 6.31 µM | 25.1 µM | 0.398 µM | 0.501 µM | 39.8 µM | – | 1 µM
NCc1ccc2c(Cl)cc(Cl)c(O)c2n1 | 2.51 µM | 2 µM | 1.26 µM | 6.31 µM | 6.31 µM | 2 µM | 2 µM | 20 µM | 0.398 µM | 0.2 µM | 25.1 µM | – | 39.8 µM
Nc1ncnc2c1ncn2[C@@H]1O[C@H](CO)C[C@H]1O [CORDYCEPIN] | 1.12 µM | 2 µM | 1.26 µM | – | > 50.1 µM | > 50.1 µM | > 50.1 µM | > 50.1 µM | 0.0126 µM | 0.01 µM | > 100 µM | > 50.1 µM | > 100 µM
